According to patent US20060058320A1, “[1,2,4] Triazolo[1,5-c]pyrimidine derivatives” (KYOWA HAKKO KOGYO CO., LTD., priority 2002, published 2006):
Counter-ions that a name gives are not always drawn.

Target: T1, adenosine A2A receptor (Rattus norvegicus, UniProt P30543)
T1 construct: from tissue; host or cells: rat corpus striatum membrane preparation
Assay: Adenosine A2A receptor binding test (3H-CGS 21680 binding)
Settings: test compound 10^−7 mol/L; 3H-CGS 21680 binding, rat corpus striatum
Protocol: The test was carried out according to the method of Bruns et al. [Molecular Pharmacology, vol. 29, p.
Rat corpus striatum was suspended in an ice-cold 50 mmol/L tris(hydroxymethyl)aminomethane hydrochloride (referred to as “Tris HCl” hereinafter) buffer (pH 7.7) using a Polytron homogenizer (produced by Kinematica Co.). The suspension was centrifuged (50,000×g, 10 minutes), and the resulting precipitate was again suspended in the same amount of a 50 mmol/L Tris HCl buffer, followed by centrifugation under the same conditions. The resulting finalprecipitate was again suspended in a 50 mmol/L-Tris HCl buffer [containing 10 mmol/L of magnesium chloride and 0.02 unit/mg tissue of adenosine deaminase (produced by Sigma Co.)] so that the tissue concentration was 5 mg (wet weight)/mL.
The radioactivity on the filter was determined with a liquid scintillation counter (produced by Packard Instrument Co.).
In the equation, X represents Amount of binding in the presence of a medicament, Y represents Amount of nonspecific binding, and Z represents Amount of total binding.

T1 sequence (P30543 whole entry): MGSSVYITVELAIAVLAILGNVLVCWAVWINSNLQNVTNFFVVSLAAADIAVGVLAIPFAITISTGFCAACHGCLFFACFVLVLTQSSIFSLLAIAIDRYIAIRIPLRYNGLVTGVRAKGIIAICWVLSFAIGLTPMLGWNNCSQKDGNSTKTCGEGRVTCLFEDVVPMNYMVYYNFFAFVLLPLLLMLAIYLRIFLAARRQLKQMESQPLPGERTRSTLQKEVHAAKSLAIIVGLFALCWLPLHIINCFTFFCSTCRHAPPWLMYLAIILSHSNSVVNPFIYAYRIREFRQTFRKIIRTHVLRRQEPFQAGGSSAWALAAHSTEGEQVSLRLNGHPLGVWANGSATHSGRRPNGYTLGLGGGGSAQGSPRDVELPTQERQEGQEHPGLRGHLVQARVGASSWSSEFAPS

**Q.** Which “A2A Receptor inhibition rate (%) at 10^−7 mol/L” value does the source give for “5-Amino-2-(2-furyl)-7-(2-phenylthienyl)[1,2,4]triazolo[1,5-c]pyrimidine [Compound 65]” here?
**A.** 96%

Same assay, conditions: test compound 10^−7 mol/L; 3H-CGS 21680 binding, rat corpus striatum; read-out: A2A Receptor inhibition rate (%) at 10^−7 mol/L

**Q.** For `CC(=O)NCCNCc1ccccc1-c1cc2nc(-c3ccco3)nn2c(N)n1` [Compound 7, 5-Amino-7-{2-[2-(N-acetylamino)ethylaminomethyl]phenyl}-2-(2-furyl)[1,2,4]triazolo[1,5-c]pyrimidine monohydrochloride], which inhibition at 0.1 µM is on record?
**A.** 64%

**Q.** With `CC(=O)NCCNCc1ccc(-c2cc3nc(-c4ccco4)nn3c(N)n2)cc1` [Compound 16, 7-{4-[2-(N-acetylamino)ethylaminomethyl]phenyl}-5-amino-2-(2-furyl)[1,2,4]triazolo[1,5-c]pyrimidine monohydrochloride] as the compound, how does the inhibition at 0.1 µM read?
**A.** 36%

**Q.** Which inhibition at 0.1 µM does the source give for `COc1cc(CNCc2ccc(-c3cc4nc(-c5ccco5)nn4c(N)n3)cc2)cc(OC)c1` [Compound 17, 5-Amino-7-[4-(3,5-dimethoxybenzylaminomethyl)phenyl]-2-(2-furyl)[1,2,4]triazolo[1,5-c]pyrimidine monohydrochloride] here?
**A.** 70%

**Q.** Which inhibition at 0.1 µM does the source give for `COC(C)(C)c1cc2nc(-c3ccco3)nn2c(N)n1` [Compound 25, 5-Amino-2-(2-furyl)-7-(1-methyl-1-methoxyethyl)[1,2,4]-triazolo[1,5-c]pyrimidine] here?
**A.** 47%

**Q.** For `COc1ccc(CNCc2cc3nc(-c4ccco4)nn3c(N)n2)cc1OC` [Compound 42, 5-Amino-7-(3,4-dimethoxybenzylaminomethyl)-2-(2-furyl)-[1,2,4]triazolo[1,5-c]pyrimidine dihydrochloride], which inhibition at 0.1 µM is on record?
**A.** 62%

Test system: not given
Assay: not given
Settings: not given

**Q.** With `Nc1nc(-c2ccccc2CNCCc2ccccn2)cc2nc(-c3ccco3)nn12` [Compound 4, 5-Amino-2-(2-furyl)-7-{2-[2-(2-pyridyl)ethylaminomethyl]-phenyl}[1,2,4]triazolo[1,5-c]pyrimidine] as the compound, how does the melting point read?
**A.** 179.2 to 180 °C

**Q.** For `Nc1nc(-c2ccc(C=O)cc2)cc2nc(-c3ccco3)nn12` [Compound 10, 5-Amino-7-(4-formylphenyl)-2-(2-furyl)[1,2,4]triazolo[1,5-c]pyrimidine], which melting point is on record?
**A.** 273.5 to 274 °C

**Q.** Which melting point does the source give for `Nc1nc(-c2cccc(C=O)c2)cc2nc(-c3ccco3)nn12` [Compound 18, 5-Amino-7-(3-formylphenyl)-2-(2-furyl)[1,2,4]triazolo[1,5-c]pyrimidine] here?
**A.** 212.8 to 213.2 °C

**Q.** With `Nc1nc(-c2cccc(CNCCc3ccccn3)c2)cc2nc(-c3ccco3)nn12` [Compound 19, 5-Amino-2-(2-furyl)-7-{3-[2-(2-pyridyl)ethylaminomethyl]-phenyl}[1,2,4]triazolo[1,5-c]pyrimidine] as the compound, how does the melting point read?
**A.** 159.2 to 159.4 °C

**Q.** For `COCc1cc2nc(-c3ccco3)nn2c(N)n1` [Compound 23, 5-Amino-2-(2-furyl)-7-methoxymethyl[1,2,4]triazolo[1,5-c]pyrimidine], which melting point is on record?
**A.** 167.2 to 167.6 °C

**Q.** Which melting point does the source give for `CCOCc1cc2nc(-c3ccco3)nn2c(N)n1` [Compound 24, 5-Amino-7-ethoxymethyl-2-(2-furyl) [1,2,4]triazolo[1,5-c]pyrimidine] here?
**A.** 153.8 to 154.6 °C

**Q.** Which melting point does the source give for `Nc1nc(COc2ccccc2F)cc2nc(-c3ccco3)nn12` [Compound 30, 5-Amino-7-(2-fluorophenoxymethyl)-2-(2-furyl) [1,2,4]-triazolo[1,5-c]pyrimidine] here?
**A.** 196.8 to 197.1 °C

**Q.** Which melting point does the source give for `Nc1nc(COc2cccnc2)cc2nc(-c3ccco3)nn12` [Compound 31, 5-Amino-2-(2-furyl)-7-(pyridin-3-yloxymethyl)[1,2,4]triazolo[1,5-c]pyrimidine] here?
**A.** 253.5 to 254 °C

**Q.** Which melting point does the source give for `Nc1nc(COc2ccccn2)cc2nc(-c3ccco3)nn12` [Compound 32, 5-Amino-2-(2-furyl)-7-(pyridin-2-yloxymethyl)[1,2,4]-triazolo[1,5-c]pyrimidine] here?
**A.** 229 to 229.2 °C

**Q.** For `Nc1nc(COc2ccncc2)cc2nc(-c3ccco3)nn12` [Compound 33, 5-Amino-2-(2-furyl)-7-(pyridin-4-yloxymethyl)[1,2,4]-triazolo[1,5-c]pyrimidine], which melting point is on record?
**A.** > 300 °C

**Q.** With `COc1ccc(CN(Cc2cc3nc(-c4ccco4)nn3c(N)n2)C(C)=O)cc1OC` [Compound 34, 7-[(N-acetyl-3,4-dimethoxybenzylamino)methyl]-5-amino-2-(2-furyl)[1,2,4]triazolo[1,5-c]pyrimidine] as the compound, how does the melting point read?
**A.** 136 to 136.5 °C

**Q.** Which melting point does the source give for `Nc1nc(CNc2ccccc2)cc2nc(-c3ccco3)nn12` [Compound 36, 5-Amino-7-anilinomethyl-2-(2-furyl)[1,2,4]triazolo[1,5-c]-pyrimidine] here?
**A.** 279.2 to 279.6 °C

**Q.** For `Nc1nc(Cn2ccccc2=O)cc2nc(-c3ccco3)nn12` [Compound 37, 5-Amino-2-(2-furyl)-7-(2-oxopyridin-1-ylmethyl)[1,2,4]-triazolo[1,5-c]pyrimidine], which melting point is on record?
**A.** 239.2 to 239.6 °C

**Q.** With `CC(=O)NCCNCc1cc2nc(-c3ccco3)nn2c(N)n1` [Compound 45, 5-Amino-7-[2-(N-acetylamino)ethylaminomethyl]-2-(2-furyl)-[1,2,4]triazolo[1,5-c]pyrimidine] as the compound, how does the melting point read?
**A.** 190.5 to 190.9 °C

**Q.** Which melting point does the source give for `Nc1nc(-c2ccncc2)cc2nc(-c3ccco3)nn12` [Compound 54, 5-Amino-2-(2-furyl)-7-(4-pyridyl)[1,2,4]triazolo[1,5-c]-pyrimidine] here?
**A.** 279.2 to 279.9 °C

**Q.** For `Nc1nc(-c2cncnc2)cc2nc(-c3ccco3)nn12` [Compound 56, 5-Amino-2-(2-furyl)-7-(5-pyrimidinyl)[1,2,4]triazolo[1,5-c]-pyrimidine], which melting point is on record?
**A.** 271 °C (dec.)

**Q.** Which melting point does the source give for `Cc1noc(C)c1-c1cc2nc(-c3ccco3)nn2c(N)n1` [Compound 57, 5-Amino-7-(3,5-dimethylisoxazol-4-yl)-2-(2-furyl)[1,2,4]-triazolo[1,5-c]pyrimidine] here?
**A.** 227.8 to 228.5 °C

**Q.** With `Nc1nc(-c2csc(NCCN3CCOCC3)n2)cc2nc(-c3ccco3)nn12` [Compound 59, 5-Amino-2-(2-furyl)-7-[2-(2-morpholinoethylamino)thiazol-4-yl][1,2,4]triazolo[1,5-c]pyrimidine] as the compound, how does the melting point read?
**A.** 274.7 to 275 °C (dec.)

**Q.** For `Nc1nc(-c2ccc(CO)cc2)cc2nc(-c3ccco3)nn12` [Compound 61, 5-Amino-2-(2-furyl)-7-(4-hydroxymethylphenyl)[1,2,4]-triazolo[1,5-c]pyrimidine], which melting point is on record?
**A.** 239.6 to 239.9 °C

**Q.** For `Nc1nc(C(=O)NCc2ccc(F)c(F)c2)cc2nc(-c3ccco3)nn12` [Compound 82, 5-Amino-2-(2-furyl)[1,2,4]triazolo[1,5-c]pyrimidine-7-carboxylic acid (3,4-difluorobenzyl)amide], which melting point is on record?
**A.** 254.5 to 254.9 °C

**Q.** With `COCCN(CCOC)C(=O)c1cc2nc(-c3ccco3)nn2c(N)n1` [Compound 88, 5-Amino-2-(2-furyl)[1,2,4]triazolo[1,5-c]pyrimidine-7-carboxylic acid [N,N-bis(2-methoxyethyl)]amide] as the compound, how does the melting point read?
**A.** 190.5 to 190.8 °C

**Q.** Which melting point does the source give for `Nc1nc(C(=O)NCCCn2ccnc2)cc2nc(-c3ccco3)nn12` [Compound 90, 5-Amino-2-(2-furyl)[1,2,4]triazolo[1,5-c]pyrimidine-7-carboxylic acid [3-(1-imidazolyl)propyl]amide] here?
**A.** 198.5 to 198.8 °C

**Q.** For `CCNC(=O)c1cc2nc(-c3ccco3)nn2c(N)n1` [Compound 98, 5-Amino-2-(2-furyl)[1,2,4]triazolo[1,5-c]pyrimidine-7-carboxylic acid ethylamide], which melting point is on record?
**A.** 178.5 to 178.9 °C
